Measurements taken from ChEMBL document CHEMBL4610081, “Anti-inflammatory Metabolites from Chaetomium nigricolor” (J Nat Prod, 2020).
Active and inactive are the calls of the source. No cut-off for these calls is given here.

Tested on: RAW264.7
Assay: Antiinflammatory activity against mouse RAW264.7 cells assessed as inhibition of LPS-induced NO production preincubated for 3 hrs followed by LPS-stimulation and measured after 24 hrs by Griess reagent based assay
Assay type: functional, cell-based

SMILES	Activity
CC(=O)OCc1ccc(C(=O)O)o1	inactive
COC(=O)/C=C/C(=O)O	inactive
COC(=O)CCC(=O)OCc1ccc(C(=O)O)o1	inactive
COc1cc(C)c2c(OC)cc(=O)oc2c1-c1c(OC)cc(C)c2c(OC)cc(=O)oc12	inactive
COc1cc(OC)c2c(c1)cc(O)c1c(=O)cc(C)oc12	inactive
